Experimental data: patent publication US12226400B2, “Neuroprotective disruption of Kv2.1/syntaxin interaction by small molecules” (UNIVERSITY OF PITTSBURGH-OF THE COMMONWEALTH SYSTEM OF …, priority 2018, dated 2025)
pIC50: −log10 of the molar value.

How the values were obtained:
[1] = molecular target: syntaxin 1A / Kv2.1 peptides containing the C1aB region (Homo sapiens, UniProt Q16623); assay: Peptide spot array far-Western assay of syntaxin binding to Kv2.1 C1a peptides; design: species or system rat
Text: Peptide spot array and far-Western assay. Peptide spot arrays (15 mers) spanning the proximal C-terminus residues 451-540 of rat Kv2.1 were constructed using the Spots-synthesis method. Standard 9-fluorenylmethoxy carbonyl (Fmoc) chemistry was used to synthesize the peptides and spot them onto nitrocellulose membranes prederivatized with a polyethylene glycerol spacer (Intavis). Fmoc protected and activated amino acids were spotted in quadruplicates on 20-30 arrays on 75 by 25 mm membranes using an Intavis MultiPep robot. The nitrocellulose membrane containing the immobilized peptides were rehydrated in Tris-buffered 0.1% Tween 20 (TBST) for 10 min, and then blocked for 1 h at room temperature (RT) with gentle shaking in TBST containing 5% (w/v) nonfat dry milk and then incubated with enriched STX1A protein containing the indicated concentrations of cpd5 for 1 h at RT with gentle shaking. Next, the membrane was incubated in primary antibody for syntaxin 1A (Millipore, catalog #AB5820-50UL, RRID:AB_2216165) for 2 h at RT with gentle shaking, followed by washing with TBST. Finally, the membrane was incubated in secondary antibody (goat anti-rabbit DyLight 800, catalog #355571, Thermo Fisher Scientific) for 45 min, washed for 3 times 5 min in TBST, and visualized by infrared fluorescence (Li-Cor). Similar procedures were followed for the alanine scan study with 9-mers.

NMDA receptors = assay: Fura-2 ratiometric Ca2+ imaging during NMDA exposure; format: cell-based, rat; conditions: 10 μM cpd5, NMDA 30 μM with 10 μM glycine; ±SEM
Procedure: Intracellular Ca^2+ measurements were performed on the same cortical culture preparations as above, but with 20 DIV cells plated on MatTek glass-bottom 35 mm culture dishes. At this developmental stage, neurons robustly express both GluN2A and GluN2B subunits of the NMDA receptor. Neurons were incubated with the fluorescent Ca^2+ indicator Fura-2 AM ester (5 μM; Invitrogen) with 0.02% Pluronic F-127 (Invitrogen) for 1 h at 37° C. Culture dishes were then mounted on an inverted microscope stage (Olympus) and continuously perfused with a 10 mM HEPES-buffered normal salt solution. Perfusion rate (5 ml/min) was controlled with a gravity flow and a rapid-switching local perfusion system (Warner Instruments). […] A ratio of fluorescence emission (F) at 510 nm in response to excitations at 340 and 380 nm was acquired at 1 Hz (Fambda DG-4 and 10-B SmartShutter, Sutter Instruments) via camera (ORCAER, Hamamatsu) and saved to a computer using HCImage (Hamamatsu). Baseline Ca^2+ signals were recorded for 2 min before the first application of NMDA (30 μM plus 10 μM glycine) with or without 10 μM cpd5 (Cat #MolPort-009-741-732, Molport). […] Peak increases in intracellular calcium concentration were measured by calculating F/Fo (F, peak fluorescence; Fo, average signal across 2 min baseline period). The area under the response for the first 15 min of NMDA application was also calculated.

[2] = test system: rat primary culture cortical neurons; assay: TBOA excitotoxicity assay (LDH release) in cortical neuron cultures; format: cell-based
Procedure: All animal protocols described here and below were approved by the Institutional Animal Care and Use Committee of the University of Pittsburgh School of Medicine. Cortical neurons were prepared from embryonic day 16-17 rats of either sex. Pregnant donor rats (Charles River Laboratories) were killed by gradual CO2 inhalation, an American Veterinary Medical Association approved protocol (Leary et al., 2013). Cortices were dissociated with trypsin, and plated at 670,000 cells per well on poly-L-ornithine glass coverslips in six-well plates. Non-neuronal cell proliferation was inhibited with 1-2 μM cytosine arabinoside at 15 days in vitro (DIV). All cortical culture experiments shown here were performed on 18-25 DIV cultures.
DL-threo-β-benzyloxaspartate (TBOA; Tocris Bioscience) excitotoxicity assays were performed on cortical culture coverslips transferred into 24-well plates containing 10 mM HEPES, 0.01% bovine serum albumin (BSA)-supplemented MEM without phenol red (MHB). […] Following this exposure, external medium was collected for LDH colorimetric measurements using a toxicity kit (Sigma-Aldrich), as previously described 12. Each experiment contained three replicates of four conditions (with/without TBOA, with/without treatment). Relative toxicity was quantified as the LDH ratio of TBOA-treated over vehicle control values within each experiment. […]

[3] = test system: delayed rectifier K+ currents (Kv2.1-mediated) in rat cortical culture neurons; assay: Whole-cell patch clamp of delayed rectifier K+ currents after TBOA; format: cell-based; conditions: Cpd5 incubation alone, 5 hours total
Procedure: Cortical culture electrophysiology. Whole-cell patch-clamp experiments were performed on rat cortical culture neurons prepared as described in the LDH toxicity experiments. The TBOA treatment was reduced in severity in this experiment to limit extensive cell injury that would prevent adequate patch clamp recordings. Prior to recording, coverslips were treated with 50 μM TBOA in MHB for 2 hr. The treatment was terminated with 3×MHB washes and transferring the coverslip to a separate well containing MHB to rest for 2 hr prior to electrophysiology recordings and to allow for the expression of enhanced currents. For cpd5-treated groups, cells were pre-incubated for 1 hr in 10 μM cpd5 prior to the addition of TBOA. Cpd5 was also present during the TBOA and the post-TBOA incubation phases.
Recordings were carried out using 1.5 mm diameter borosilicate glass electrodes (Sutter Instruments) made from a horizontal pipette puller at 5-7 MΩ. The internal solution contains (in mM): 100 K-gluconate, 10 KCl, 1 MgCl2, 1 CaCl2, 10 HEPES, 11 EGTA, 2.2 ATP, 0.33 GTP. The internal solution was further adjusted to pH 7.2 and to 280 mOsm with the addition of sucrose. The pH adjusted (7.2) external solution was composed of the following (in mM): 115 NaCl, 2.5 KCl, 2.0 MgCl2, 10 HEPES, 10 D-glucose, and 0.25 μM TTX. […]

syntaxin 1A / Kv2.1 peptides containing the C1aB region, sequence (Q16623 whole entry, species assumed, the tested form may be a part): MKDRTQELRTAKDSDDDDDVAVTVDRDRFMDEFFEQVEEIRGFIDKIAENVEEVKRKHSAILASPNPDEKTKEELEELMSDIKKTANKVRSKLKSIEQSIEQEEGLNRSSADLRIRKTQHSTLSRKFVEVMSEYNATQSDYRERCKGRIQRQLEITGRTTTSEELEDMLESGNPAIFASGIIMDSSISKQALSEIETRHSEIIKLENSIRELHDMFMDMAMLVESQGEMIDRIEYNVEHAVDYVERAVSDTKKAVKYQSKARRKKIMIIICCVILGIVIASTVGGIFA

COc1ccc(CNC(=O)Nc2cccc(-c3nc4ccccc4s3)c2)cc1OC [cpd5, 3-[3-(1,3-benzothiazol-2-yl)phenyl]-1-[(3,4-dimethoxyphenyl)methyl]urea]
reduction of Kv2.1 peptides binding to syntaxin at peak values ([1]; Cpd5 100 μM): up to 60% | pIC50 ([1]; percent inhibition compared to 0.1% DMSO, variable slope fit, read-out: IC50 for inhibition of syntaxin binding to peptides 22-28 (full C1aB domain) of the peptide array): 5.26 | NMDA-induced Ca2+ response, AUC treated (NMDA receptors): 104.67±1.98 % Control | NMDA-induced Ca2+ response, F-peak treated (NMDA receptors): 101.26±1.47 % Control | TBOA toxicity (neuroprotection) ([2]; 10 μM Cpd5, pre-loading 1 hr and co-incubation, overnight TBOA 60 μM): significantly diminished TBOA toxicity | relative toxicity (LDH ratio of TBOA-treated over vehicle control) ([2]; 10 μM compound, 1 hr preincubation and coincubation, 75 μM TBOA, 24 hr, mean±SEM): 1.84±0.42 | basal K+ current densities [3]: no significant effects
